Drawing on patent US11712438B2, “Phenyl derivatives as PGE2 receptor modulators” (IDORSIA PHARMACEUTICALS LTD, priority 2017, dated 2023), this text covers IC50 for 22 compounds.

Assay in all cases: cell-based
For experiment [1], the target named is EP2 (Homo sapiens, UniProt P43116).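 Also: SF295 glioblastoma cells with endogenous EP2 only, PGE2-stimulated cAMP accumulation read by HTRF competitive immunoassay, 45 min pre-incubation then 30 min at room temperature, IBMX in buffer.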
Procedure: The antagonistic activities of the compounds of formula (I) on the EP2 and EP4 receptors are also determined in accordance with the following experimental method.
Human tumor cell lines expressing endogenously either EP4 or EP2 are used and cAMP accumulation in cells upon PGE2 stimulation is monitored. SF295 glioblastoma cells express high endogenous EP2 and no EP4,whereas BT549 breast cancer cells, express high endogenous EP4 levels and very low EP2 levels.
As a detection method for cAMP the HTRF (homogeneous time resolved fluorescence) Cisbio kit (HTRF cAMP dynamic 2 kit 20′000 tests Cisbio Cat. #62AM4PEC) was used, which is based on a competitive immunoassay using a Cryptate-labeled anti-cAMP antibody and d2-labeled cAMP. Native cAMP produced by cells or unlabeled cAMP (for the standard curve) compete with exogenously added d2-labeled cAMP (acceptor) for binding to monoclonal anti-cAMP-Eu3+ Cryptate (donor). A FRET signal (Fluorescence Resonance Energy Transfer) is obtained only if the labeled anti-cAMP antibody binds the d2 labelled cAMP, thus the specific signal (i.e. energy transfer) is inversely proportional to the concentration of cAMP in the standard or sample.
The SF295 cells (NCI/No. 0503170) are detached from culture dishes with a cell dissociation buffer (Invitrogen, 13151-014), and collected in growing medium (GM: RPM11640 (Invitrogen 21875)/10% FCS, 1% Penicilin/streptomycin). Cells are counted washed and resuspended in assay buffer (AB; HBSS, 20 mM HEPES, 0.2% BSA; 2 mM IBMX). 4′000 cells in 5 μl of AB are seeded per well of a small volume 384 well plate (black with flat bottom, Greiner 784076).
PGE2 (Cayman 14010, stock solution: 750 in DMSO) is used as agonist at 75 nM final concentration, corresponding to EC80.
Two point five microliters of diluted compounds are transferred into the assay plate. Plate is pre-incubated 45 minutes at room temperature. Subsequently, 2.5 microliters of PGE2 (final conc. 75 nM) are transferred into the assay plate. Plate is incubated 30 minutes at room temperature.
For each compound concentration the percentage of cAMP compared to DMSO control value as average±STDEV (each concentration is measured in duplicate) is calculated.
The target in experiment [2] is EP4 (Homo sapiens, UniProt P35408).
Sequence of EP4 (P35408 whole entry): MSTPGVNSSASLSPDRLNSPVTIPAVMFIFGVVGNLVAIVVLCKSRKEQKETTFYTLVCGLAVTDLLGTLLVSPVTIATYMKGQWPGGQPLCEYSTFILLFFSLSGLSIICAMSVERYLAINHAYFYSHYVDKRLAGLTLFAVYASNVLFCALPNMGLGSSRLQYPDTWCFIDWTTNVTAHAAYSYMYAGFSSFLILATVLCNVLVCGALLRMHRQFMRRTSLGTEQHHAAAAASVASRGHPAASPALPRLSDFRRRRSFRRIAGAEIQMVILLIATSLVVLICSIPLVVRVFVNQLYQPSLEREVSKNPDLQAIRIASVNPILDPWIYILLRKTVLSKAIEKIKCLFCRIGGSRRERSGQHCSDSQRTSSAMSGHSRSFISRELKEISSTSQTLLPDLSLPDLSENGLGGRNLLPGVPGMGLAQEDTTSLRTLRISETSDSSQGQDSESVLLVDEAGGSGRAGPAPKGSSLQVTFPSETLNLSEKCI
Experiment [3] deals with PTGER2 (EP2) (Homo sapiens, UniProt P43116).
Sequence of PTGER2 (EP2) (P43116 whole entry): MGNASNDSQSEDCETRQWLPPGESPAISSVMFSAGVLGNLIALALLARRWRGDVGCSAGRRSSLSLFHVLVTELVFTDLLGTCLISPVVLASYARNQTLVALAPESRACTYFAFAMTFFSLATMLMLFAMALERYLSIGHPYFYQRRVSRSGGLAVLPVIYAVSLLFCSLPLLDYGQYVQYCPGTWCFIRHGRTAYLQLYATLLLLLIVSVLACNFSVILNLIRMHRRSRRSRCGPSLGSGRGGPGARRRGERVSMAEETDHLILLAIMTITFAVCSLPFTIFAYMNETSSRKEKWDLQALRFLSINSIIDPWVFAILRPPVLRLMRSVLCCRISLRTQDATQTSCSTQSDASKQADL
The target of experiment [4] is PTRGER4 (EP4) (Homo sapiens, UniProt P35408).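 Also: assay plate preincubated 15 min at 37 °C, after which PGE2 was added at 20 nM final and incubation continued 120 min at 37 °C.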
Sequence of PTRGER4 (EP4) (P35408 whole entry): as the sequence (P35408 whole entry) above

Sequence of EP2 (P43116 whole entry): as the sequence (P43116 whole entry) above

For orientation: IC50 means the concentration at which inhibition is half-maximal. Low readings indicate greater potency in that assay, high ones weaker potency in that assay. Regarding `O=c1[nH]c(-c2ccc(-c3cc(NCCc4ccc(Br)cc4)ncn3)cc2)no1` [Example 14, 3-(4-{6-[2-(4-Bromo-phenyl)-ethylamino]-pyrimidin-4-yl}-phenyl)-[1,2,4]oxadiazol-5(4H)-one], the IC50 in experiment [1] amounted to 0.257 µM; in experiment [2] it was 0.262 µM.
The matching figures for `CCOc1cc(-c2cc(NCCc3ccc(Br)cc3Cl)ncn2)sc1-c1noc(=O)[nH]1` [Example 124, 3-(5-{6-[2-(4-Bromo-2-chloro-phenyl)-ethylamino]-pyrimidin-4-yl}-3-ethoxy-thiophen-2-yl)-[1,2,4]oxadiazol-5(4H)-one]: 0.046 µM and 0.036 µM.
The like results for `COc1cc(SC)ccc1CCNc1cc(-c2ccc(C(=O)O)c(OC3CCC3)c2)ncn1` [Example 8, 2-Cyclobutoxy-4-{6-[2-(2-methoxy-4-methylsulfanyl-phenyl)-ethylamino]-pyrimidin-4-yl}-benzoic acid] were, in that order, 0.34 µM and 0.262 µM.
The matching figures for `COc1cc(-c2cc(NCCc3ccc(Br)cc3)ncn2)ccc1OCCO` [Example 16, 2-(4-{6-[2-(4-Bromo-phenyl)-ethylamino]-pyrimidin-4-yl}-2-methoxy-phenoxy)-ethanol]: 0.795 µM and 0.914 µM.
Consider `CC(C(=O)O)c1ccc(-c2cc(NCCc3ccc(Br)cc3)ncn2)s1` (racemic) [Example 159, rac-2-(5-{6-[2-(4-Bromo-phenyl)-ethylamino]-pyrimidin-4-yl}-thiophen-2-yl)-propionic acid], for which the IC50 in experiment [1] was determined as 0.392 µM; in experiment [2], 0.602 µM.
Take `CCOc1cc(-c2cc(NCCc3ccc(Br)cc3)ncn2)sc1-c1noc(CO)n1` [Example 143, [3-(5-{6-[2-(4-Bromo-phenyl)-ethylamino]-pyrimidin-4-yl}-3-ethoxy-thiophen-2-yl)-[1,2,4]oxadiazol-5-yl]-methanol]: the IC50 in experiment [1] is 0.604 µM; in experiment [2] it was 0.344 µM.
The like results for `Cn1[nH]c(=O)c2ccc(-c3cc(NCCc4ccc(Br)cc4)ncn3)cc21` [Example 9, 6-{6-[2-(4-Bromo-phenyl)-ethylamino]-pyrimidin-4-yl}-1-methyl-1,2-dihydro-indazol-3-one] were, in that order, 0.642 µM and 1.08 µM.
As for `CCCOc1cc(-c2cc(NCCc3c(C)cc(C)cc3OC)ncn2)ccc1CC(=O)O` [Example 204, (4-{6-[2-(2-Methoxy-4,6-dimethyl-phenyl)-ethylamino]-pyrimidin-4-yl}-2-propoxy-phenyl)-acetic acid], the 50% inhibitory concentration (IC50) worked out at 0.433 µM in experiment [3] and 0.699 µM in experiment [4].
The like results for `O=C(O)c1coc2cc(-c3cc(NCCc4c(F)cc(Br)cc4F)ncn3)ccc12` [Example 272, 6-{6-[2-(4-Bromo-2,6-difluoro-phenyl)-ethylamino]-pyrimidin-4-yl}-benzofuran-3-carboxylic acid] were, in that order, 0.174 µM and 0.426 µM.
For `COc1cc(F)c(CCNc2cc(-c3ccc(C(=O)O)c(SC)c3)ncn2)c(F)c1` [Example 229, 4-{6-[2-(2,6-Difluoro-4-methoxy-phenyl)-ethylamino]-pyrimidin-4-yl}-2-methylsulfanyl-benzoic acid], the 50% inhibitory concentration (IC50) in experiment [3] stood at 0.081 µM; in experiment [4], 0.273 µM.
The like results for `CCOc1cc(-c2cc(NCCc3cc(F)c(C(F)F)cc3OC)ncn2)ccc1C(=O)O` [Example 183, 4-{6-[2-(4-Difluoromethyl-5-fluoro-2-methoxy-phenyl)-ethylamino]-pyrimidin-4-yl}-2-ethoxy-benzoic acid] were, in that order, 0.695 µM and 0.661 µM.
For `CCOc1cc(-c2cc(NCCc3c(F)cc(Br)cc3F)ncn2)ccc1C1(C(=O)O)CC1` [Example 171, 1-(4-{6-[2-(4-Bromo-2,6-difluoro-phenyl)-ethylamino]-pyrimidin-4-yl}-2-ethoxy-phenyl)-cyclopropanecarboxylic acid], the IC50 in experiment [3] stood at 0.68 µM; in experiment [4] it was 0.582 µM.
The like results for `O=c1[nH]c2ccc(-c3cc(NCCc4c(F)cc(Br)cc4F)ncn3)cc2o1` [Example 266, 6-{6-[2-(4-Bromo-2,6-difluoro-phenyl)-ethylamino]-pyrimidin-4-yl}-3H-benzooxazol-2-one] were, in that order, 0.065 µM and 0.368 µM.
The like results for `CCCc1cc(-c2cc(NCCc3ccc(C(F)(F)F)cc3OC)ncn2)ccc1C(=O)O` [Example 207, 4-{6-[2-(2-Methoxy-4-trifluoromethyl-phenyl)-ethylamino]-pyrimidin-4-yl}-2-propyl-benzoic acid] were, in that order, 0.721 µM and 0.491 µM.
`NC(=O)Nc1ccc(-c2cc(NCCc3c(F)cc(Br)cc3F)ncn2)cc1` [Example 265, (4-{6-[2-(4-Bromo-2,6-difluoro-phenyl)-ethylamino]-pyrimidin-4-yl}-phenyl)-urea]: the IC50 turned out to be 0.242 µM in experiment [3] and 0.452 µM in experiment [4].
The matching figures for `CCNC(=O)c1ccc(-c2cc(NCCc3c(F)cc(Br)cc3F)ncn2)cc1OCC` [Example 299, 4-{6-[2-(4-Bromo-2,6-difluoro-phenyl)-ethylamino]-pyrimidin-4-yl}-2-ethoxy-N-ethyl-benzamide]: 0.145 µM and 0.255 µM.
The matching figures for `CCn1cc(-c2cc(NCCc3c(F)cc(Br)cc3F)ncn2)cc1C(=O)O` [Example 269, 4-{6-[2-(4-Bromo-2,6-difluoro-phenyl)-ethylamino]-pyrimidin-4-yl}-1-ethyl-1H-pyrrole-2-carboxylic acid]: 0.258 µM and 0.768 µM.
The matching figures for `CCOc1cc(-c2cc(NCCc3cc(C)c(C)cc3OC)ncn2)ccc1CC(=O)O` [Example 190, (2-Ethoxy-4-{6-[2-(2-methoxy-4,5-dimethyl-phenyl)-ethylamino]-pyrimidin-4-yl}-phenyl)-acetic acid]: 0.486 µM and 0.181 µM.
As to `CCCc1cc(-c2cc(NCCc3c(F)cc(Br)cc3F)ncn2)ccc1Cc1noc(=O)[nH]1` [Example 284, 3-(4-{6-[2-(4-Bromo-2,6-difluoro-phenyl)-ethylamino]-pyrimidin-4-yl}-2-propyl-benzyl)-[1,2,4]oxadiazol-5(4H)-one], the figures for the IC50 in experiment [3] and in experiment [4] were 0.295 µM and 0.199 µM, respectively.
The matching figures for `CCOc1cc(-c2cc(NCCc3c(F)cccc3F)ncn2)ccc1-c1noc(=O)[nH]1` [Example 233, 3-(4-(64(2,6-Difluorophenethypamino)pyrimidin-4-yl)-2-ethoxyphenyl)-[1,2,4]oxadiazol-5(4H)-one]: 0.222 µM and 0.398 µM.
For `COc1cc(C(F)(F)F)ccc1CCNc1cc(-c2ccc(C(=O)O)c(SC)c2)ncn1` [Example 206, 4-{6-[2-(2-Methoxy-4-trifluoromethyl-phenyl)-ethylamino]-pyrimidin-4-yl}-2-methylsulfanyl-benzoic acid], the 50% inhibitory concentration (IC50) in experiment [3] turned out to be 0.315 µM; in experiment [4], 0.372 µM.
As for `CCOc1cc(C(F)(F)F)ccc1CCNc1cc(-c2ccc(CC(=O)O)c(OCC)c2)ncn1` [Example 214, (2-Ethoxy-4-{6-[2-(2-ethoxy-4-trifluoromethyl-phenyl)-ethylamino]-pyrimidin-4-yl}-phenyl)-acetic acid], the IC50 in experiment [3] worked out at 0.184 µM; in experiment [4], 0.062 µM.
